Assay results published in patent US6395760B1, “Pesticidal 1-arylpyrazoles” (Rhone-Poulenc Inc., priority 1997, dated 2002).

What was measured:
Set-up in all cases: key: ‘X’ means highly active; ‘+’ means moderately active; ‘−’ means low activity
Schizaphis graminum = experiment: Soil drench test (systemic activity), greenbug on sorghum plants; format: in vivo; settings: 10.0 ppm soil concentration by weight, counts at 5 DAT vs untreated control
Source text: (§1) The Soil Drench Test (Systemic Activity) Cotton and sorghum plants were established in pots. One day prior to treatment, each pot was infested with about 25 aphids of a mixed population. Cotton plants were infested with aphids and sorghum plants were infested with the greenbug. The selected compound of formula (I) was applied to the soil surface in a dilution that delivered the equivalent of 10.0 ppm soil concentration by weight. Aphid counts were obtained at 5 DAT (=days after treatment). The number of aphids on the treated plants was compared to the number of those on the untreated control plants.

Aphis gossypii = experiment: Soil drench test (systemic activity), aphids on cotton plants; format: in vivo; settings: 10.0 ppm soil concentration by weight, aphid counts at 5 DAT vs untreated control
Source text: as §1

Musca domestica = experiment: Housefly bait/contact test; format: in vivo; settings: 50 ppm in sugar water bait solution, adult houseflies, mortality after 24 hours
Source text: The Housefly Bait/Contact Test About 25 four to six-day-old adult houseflies were anesthetized and placed in a cage with a sugar water bait solution containing the compound. The concentration of the selected compound of formula (I) in the bait solution was 50 ppm.

A. gossypii = experiment: Foliar application (contact test) with aphids; format: in vivo, Aphis gossypii; settings: 100 ppm formulation sprayed to runoff on aphid-infested cotton plants, dead aphids counted three days after treatment
Source text: Foliar Application (Contact Test) with Aphids Aphid-infested cotton plants were placed on a revolving turntable, and sprayed to runoff with a 100 ppm formulation of the selected compound of formula (I). The treated, A. gossypii-infested plants were held for three days after treatment, after which the dead aphids were counted.

CCNc1c(S(C)(=O)=O)c(C2(C)OCCO2)nn1-c1c(Cl)cc(C(F)(F)F)cc1Cl [Compound 34]
X: Systemic activity on greenbugs (Schizaphis graminum) | Systemic activity on aphids (Aphis gossypii) | Activity on house flies by contact (Musca domestica) | Foliar activity on aphids (A. gossypii)

CNc1c(S(C)(=O)=O)c(C2(C)OCCO2)nn1-c1c(Cl)cc(C(F)(F)F)cc1Cl [Compound 35]
X: Systemic activity on greenbugs (Schizaphis graminum) | Systemic activity on aphids (Aphis gossypii) | Activity on house flies by contact (Musca domestica) | Foliar activity on aphids (A. gossypii)
